# From a melting point compilation (Tetko et al.)
row,melting point,SMILES
1,128 °C,COc1ccc(C(=O)c2ccc(Cl)cc2Cl)cc1OC
2,115 °C,O=C(Oc1ccc(OC(=O)c2ccccc2)cc1)c1ccccc1
3,178 to 182 °C,O=C1CC2C(Br)CC1C2C(=O)O (configuration not stated)
4,126 to 131 °C,S=c1sc2ccccc2n1CCl
5,194 to 196 °C,O=[N+]([O-])c1ccc(CSc2ncnc3c2ncn3C2OC(CO)C(O)C2O)cc1 (configuration not stated)
6,255 to 258 °C,CC(=O)Nc1cc(Cl)c(Cl)cc1NC(C)=O
7,91 to 95 °C,CCOC(=O)Cc1csc(N)n1
8,254 °C,Oc1ccc(C=Cc2cc(O)cc(O)c2)cc1
9,250 °C,Cc1nc2ccccc2n1CCc1nnc(S)n1N=Cc1ccccc1Cl
10,-82 °C,COC(CC(C)=O)OC
11,155 °C,COc1c2occc2c(OC)c2c(=O)cc(C)oc12
12,168 °C,COc1ccc(S(N)(=O)=O)c(OC)c1
13,260 to 262 °C,O=C(CCc1ccc(O)cc1)c1c(O)cc(O)cc1O
14,58 °C,Clc1cccc2cc[nH]c12
15,67.5 °C,Nc1ccc(I)cc1
16,255 °C,O=C(C1=NN(c2ccccc2)C2C(=O)N(c3ccc(Br)cc3)C(=O)C12)c1ccc(Cl)cc1 (configuration not stated)
17,144 °C,Cc1c(-c2ccccc2)oc(-c2ccccc2)c(C)c1=O
18,335 to 340 °C,O=C1C=CC(=O)[C@@H]2CC3=C(CC4=C(C3)C[C@H]3C(=O)C=CC(=O)[C@H]3C4)C[C@H]12
19,65 to 70 °C,CC(C)(C)OC(=O)C[C@H]1C[C@@H](CC#N)OC(C)(C)O1
20,215 to 217 °C,CC(=O)Nc1sc2c(c1C#N)CCCC2
21,60 °C,CNC(=O)C(C)(C(C)C)C(C)C
22,73 to 76 °C,O=C1OC(=O)C2CCC12 (configuration not stated)
23,-7.85 °C,CCCCCNCCCCC
24,25.2 °C,c1ccc(Cc2ccccc2)cc1
25,155 °C,CCOC=Nc1c(C#N)cnn1-c1ncnc2c1cnn2C
26,143 to 146 °C,CSc1ncccc1C(=O)NC(CC(C)C)C(=O)O (configuration not stated)
27,165 to 167 °C,O=C(Nc1ccccc1)C(C(F)(F)F)C(F)(F)F
28,65 °C,CCC1(C)CC(=O)NC1=O (configuration not stated)

row,melting point,SMILES
1,131 °C,Ic1ccc(-n2cccc2)cc1
2,-57 °C,CCCCCCCCN(C)C
3,106 °C,NC(=O)c1ccccn1
4,236 °C,OC1CC(O)C(O)C(O)C1O (configuration not stated)
5,100 °C,O=C1OC(=Cc2ccccc2)c2ccccc21
6,234 to 236 °C,Cc1cc(C)c2c(=O)n(C)c(S)nc2n1
7,149 to 153 °C,O=C(O)C1(c2cccc(F)c2)CCCC1
8,78 to 80 °C,CC1(C)CCC(C)(C)c2cc(S(=O)(=O)Cl)ccc21
9,67 °C,COC(=O)c1ccc([N+](=O)[O-])cc1C(=O)OC
10,134 to 139 °C,CN(C)c1ccc([N+](=O)[O-])c(N)c1
11,157 °C,COc1cc(-c2nnc3n2N=C(C(C)C)CS3)cc(OC)c1OC
12,151 °C,N#Cc1ccc(CC(=O)O)cc1
13,112 to 113 °C,Cc1nccn1-c1ccc(N)cc1
14,102 °C,COc1ccc2cc(Nc3ccc4c(c3)OCCO4)ccc2c1
15,-8 °C,CCOC(=O)CC(C(C)=O)C(=O)OCC (configuration not stated)
16,79 to 81 °C,CCCCOc1ccc(-c2nnc3sc(/C=C/c4ccccc4)nn23)cc1
17,188 °C,COC(=O)c1cc(OCc2cc(COc3cc(C(=O)OC)cc(C(=O)OC)c3)cc(COc3cc(C(=O)OC)cc(C(=O)OC)c3)c2)cc(C(=O)OC)c1
18,30.5 °C,CCOC(=O)c1ccc(CBr)cc1
19,254 °C,CCCOc1ccc2c(c1)C(c1ccc(OC)cc1OCC(=O)O)C(C(=O)O)C2c1ccc2c(c1)OCO2 (configuration not stated)
20,127 °C,CC(=O)Nc1cccc(C(C)=O)c1
21,26 °C,Nc1ccccc1S
22,-60 °C,C=C(C)C(=O)OCC
23,68 to 70 °C,Cn1nc(C(F)(F)F)cc1-c1ccc(S(=O)(=O)Cl)s1
24,75 to 77 °C,CCOC(=O)CC(=O)c1cccc([N+](=O)[O-])c1
25,95 °C,Cc1ccc(S(=O)c2ccc(C)cc2)cc1
26,88 °C,CC(C)(C)[Si](C)(C)Cl
27,194 to 197 °C,C=CCOC(=O)Nc1cc(O)cc(C(=O)O)c1

# Continued, molecule first:
row,SMILES,melting point
1,CC(C(=O)O)c1ccc(N2CC=CC2)c(Cl)c1 (configuration not stated),99 °C
2,CCCCCCCCCCCCCCCN,37.3 °C
3,CCCCCCCCCc1ccc(OCCOCCO)cc1,43 °C
4,CCC(C)I (configuration not stated),-104 °C
5,CC(C)S(=O)(=O)c1cnc(-c2cccnc2)nc1N,225 to 228 °C
6,NC(=O)Cc1ccc(O)cc1,176 to 180 °C
7,Nc1ccc(C2=NN(c3ccccc3)C(=O)C2)cc1,160 °C
8,O=[N+]([O-])c1c(O)ccc2ccccc12,104 °C
9,c1ccc2c(c1)OCCOCCOCCOCCOc1ccccc1OCCOCCOCCOCCO2,104 to 108 °C
10,CC(C)[C@H](NC(=O)OCC1c2ccccc2-c2ccccc21)C(=O)Oc1c(F)c(F)c(F)c(F)c1F,121 to 122 °C
11,Cc1nn(C)c(Cl)c1[N+](=O)[O-],75 to 77 °C
12,O=C(O)c1ccc(-c2ccccn2)s1,231 to 233 °C
13,C=C1CCC1,-135 °C
14,C[C@H](CCC(=O)O)[C@H]1CC[C@H]2[C@@H]3CC[C@H]4CC(=O)CC[C@]4(C)[C@H]3CC[C@]12C,189 °C
15,CC12CCC3C(CCC4CC(C[N+](=O)[O-])=CCC43C)C1CCC2O (configuration not stated),129 °C
16,Cn1c(=O)c2[nH]cnc2n(C)c1=O,270 °C
17,CC1(C)OC(=O)c2ccccc21,70 °C
18,Fc1cc(Br)ccc1CBr,35 °C
19,Nc1ccccc1/C=C/c1nc2ccccc2[nH]1,213 °C
20,COc1cc(CCO)ccc1O,41 °C
21,Nc1c(Cl)cc(Cl)cc1I,80 °C
22,c1ccc(O[Si]23OCCN(CCO2)CCO3)cc1,218 °C
23,O=C(NN=C1CCCCC1)C(=O)NN=C1CCCCC1,210 °C
24,c1cc(OCC2CO2)ccc1OCC1CO1 (configuration not stated),111 °C

row,SMILES,melting point
1,N#CC1(O)CN2CCC1CC2 (configuration not stated),156 to 159 °C
2,CC(=O)Oc1cccc(I)c1,38 °C
3,COc1cccc(C(=O)NN(C(=O)c2cc(C)cc(C)c2)C(C)(C)C)c1C,204 °C
4,C=CCC1(c2ccccc2)C(=O)NC(=O)NC1=O,156 °C
5,NC(=O)c1ccc(Cl)cc1Cl,192 °C
6,C=CCNC(SC)=C(C#N)C#N,91 °C
7,CC(C)(C)OC[C@H](NC(=O)OCC1c2ccccc2-c2ccccc21)C(=O)O,127 to 131 °C
8,COc1ccc(CBr)cc1C(F)(F)F,77 °C
9,CC(=O)C1(O)CCC2(C)C(CCC3C4CCC(=O)C4(C)CCC32)C1 (configuration not stated),211 to 212 °C
10,CC(=O)[C@H]1CC[C@H]2[C@@H]3CC=C4C[C@@H](OC(=O)CCC(=O)O)CC[C@]4(C)[C@H]3CC[C@]12C,180 °C
11,CCC(CO)NC(=O)C1C=C2c3cccc4c3c(cn4C)CC2N(C)C1 (configuration not stated),195 °C
12,COc1ccc2c(c1)CC1(CCC(O)(c3ccc(C(C)(C)C)cc3)CC1)C2=O (configuration not stated),183 to 184 °C
13,Cc1cc(Br)ccc1S(=O)(=O)Cl,65 to 67 °C
14,CC(=O)NC1C(OCc2ccccc2)OC2COC(c3ccccc3)OC2C1OC(C)C(=O)O (configuration not stated),220 to 222 °C
15,C[Si](c1ccccc1)(c1ccccc1)[Si](C)(c1ccccc1)c1ccccc1,138 to 140 °C
16,O=c1[nH]c2ccccc2n1CCCCl,115 to 125 °C
17,N#Cc1nc(C#N)nc(C#N)n1,119 °C
18,COc1ccc(/C(C)=C/C(C)=O)cc1,52.5 to 53 °C
19,c1ccc(-c2ncoc2-c2ccccc2)cc1,44 °C
20,COc1ccc(C#N)cn1,94 to 95 °C
21,Cc1cc(O)no1,86.5 °C
22,O=C(c1ccccc1)c1cccc2ccccc12,76 °C
23,C=CCSC(=O)n1c(N)c(-c2ccccc2C)c(=O)n1C(C)C,116 °C
24,O=C(O)C1CCCCC1C(=O)OCCO (configuration not stated),90 °C

row,SMILES,melting point
1,COc1ccccc1Oc1ccc(C(F)(F)F)cc1N,28 °C
2,NC(CC(=O)O)C1CCCCC1 (configuration not stated),234 to 235 °C
3,O=c1[nH]cc(Br)c(=O)[nH]1,310 °C
4,Cc1cccc(C)c1NC(=O)C(C)N (configuration not stated),256 °C
5,CC(C)(C)OC(=O)N1c2ccccc2CC1C(=O)O (configuration not stated),121 to 122 °C
6,CC(c1ccccc1)C(C(=O)O)c1ccccc1 (configuration not stated),129 °C
7,CCCCCCCCCCOc1ccccc1OCCCCCCCCCC,39 to 42 °C
8,Cc1ccc(/N=N/C2C(=O)NN(c3ccccc3)C2=O)cc1 (configuration not stated),247 °C
9,Nc1nn2c(C(F)(F)F)cc(=O)[nH]c2c1/N=N/c1ccc(O)cc1,268 °C
10,Cn1cc(Br)c(-c2cccc(N)c2)n1,95 to 97 °C
11,ClC(Br)C(Cl)Br (configuration not stated),-26 °C
12,O=C=Nc1ccc(CCl)cc1,33 °C
13,NCc1ccc(-c2ccccc2)nc1,38 to 40 °C
14,CC(=O)Oc1c(-c2ccccc2)[nH]c2ccccc12,107 °C
15,CC(C)S(=O)(=O)c1cnc(-c2ccccn2)nc1N,147 to 150 °C
16,O=C(O)CCc1cccc(Cl)c1,72 to 74 °C
17,O=C1Nc2ccc(Cl)cc2C(c2ccccc2Cl)=NC1O (configuration not stated),166 °C
18,Fc1c(F)c(F)c(P(c2ccccc2)c2c(F)c(F)c(F)c(F)c2F)c(F)c1F,61.5 °C
19,O=C(O)C1(C(=O)O)CCC1,157 to 161 °C
20,C[Si](C)(C)O[Si](C)(C)O[Si](C)(C)O[Si](C)(C)C,-68 °C
21,CC12CCC3C(CCC4=CC(=O)CCC43C)C1CCC2=O (configuration not stated),170 to 171 °C
22,Cn1c(=O)c(C2=NNC(=O)C2=Cc2ccc3c(c2)OCO3)c(O)c2ccccc21,265 °C
23,CC12CCC3C(CCC45OC4C(=O)C=CC35O)C1CCC2=O (configuration not stated),201 to 203 °C
24,CCC(C)CCC(C)O (configuration not stated),-61 °C
